The text below walks through data of patent publication US4401666A (priority 1982, dated 1983).

By LD50 is commonly meant the dose at which mortality reaches 50%.

In one data set the test system is Escherichia coli. As to the method:
(§1) Bacterial isolates for these studies were obtained from the New York State Mastitis Control Program, a division of veterinary clinical services of the New York State College of Veterinary Medicine, Cornell University. Samples were from cows with clinical mastitis or from milk cows that were cultured for a routine herd survey. Mastitis pathogens were identified by the use of standard bacteriologic technique^(1).
(§2) Concentrations inhibiting growth by 50% were determined using broth dilution test procedures^(2). Briefly 0.1 ml of cultures containing approximately 9×10^6 organisms/ml were inoculated into 10 mls of Tryptose-soy broth^(3) containing either 0, 1, 10, 100, or 1000 ppm of zinc pyridine-2-thione-N-oxide. These tubes were incubated at 37° C. for 18 hours and optical densities were read at 550 nanometers. Blanks for each test level consisted of a Tryptose-soy broth tube with the same concentration of test material. Concentrations of test material inhibiting growth by 50% were computed by probit analysis^(4).

A further data set concerns Klebsiella pneumoniae. The procedure: as §1, §2
The subject of a further data set is Pseudomonas aeruginosa. Particulars: 37° C., 18 h, 2 isolates. The procedure:
as §1, §2

A further data set relates to Staphylococcus aureus. The note with it: 37° C., 18 h, 5 isolates. The procedure:
as §1, §2

In data set [1] the test system is microorganisms which cause bovine mastitis. Particulars: broth. The procedure: as §1, §2
Another data set deals with Yeast Group. Nature of the data set: Broth dilution growth inhibition (MIC), isolates from mastitic cows. It is filed as cell-based. Particulars: 37° C., 18 h, 5 isolates. On the technique in general: In broth dilution the organism is exposed to a series of concentrations in liquid medium.
The test system of a further data set is E. coli. Nature of the data set: MIC in sterile, homogenized, skim milk. The class given is cell-based, Escherichia coli. Particulars: 37° C., 4 h. The procedure:
(§3) Cultures of E. coli and S. aureus were isolated from mammary glands of cows with mastitis. Cultures were streaked on blood agar plates and incubated for 24 hours at 37° C. Colonies from these plates were inoculated into nutrient broth tubes and incubated at 37° C. overnight. One-tenth milliliter aliquots of these cultures were inoculated into 10 milliliter tubes of sterile, homogenized, skim milk containing various concentrations of zinc pyridine-2-thione-N-oxide. The concentrations of this active compound ranged from 0.01 ppm to 100 ppm and were made by serially diluting a 1% by weight aqueous suspension of zinc pyridine-2-thione-N-oxide in 10 milliliter portions of sterile skim milk.
(§4) The milk tubes containing bacteria and zinc pyridine-2-thione-N-oxide were incubated in a shaking water bath at 37° C. for 4 hours; at the end of the incubation period, 0.1 ml of the milk incubate was added to 2 ml of soft agar (0.75% by weight agar and the rest being water) and plated on blood agar plates. These plates were incubated at 37° C. for 18 hours and the microorganisms present on each plate were counted with an NBS Automatic Colony Counter.

The test system of a further data set is S. aureus. Kind of data set: MIC in sterile, homogenized, skim milk. It is filed as cell-based, Staphylococcus aureus. Particulars: 37° C., 4 h. As to the method: as §3, §4
For data set [2], the system named is udder of normal, lactating cows. The note with it: bovine, in vivo.
Data set [3] concerns udder of healthy, lactating cow. The note with it: bovine, in vivo.
For data set [4] the following is noted: bovine, in vivo.
Another data set deals with rats. The note with it: cited from earlier work.
[5] abbreviates: Tryptose-soy broth, 37° C., 18 h, 5 isolates.
[6] abbreviates: Tryptose-soy broth, 37° C., 18 h, 3 isolates.

Regarding `[Na+].[O-][n+]1ccccc1[S-]` [sodium pyridine-2-thione-N-oxide, 2-pyridinethiol-1-oxide, Na salt], the “50% by Weight Growth Inhibited” value in the data set with Escherichia coli (Table 1A, broth, 37° C., 18 h, 5 isolates) is 3.4 ± 0.8; in the data set with Klebsiella pneumoniae (Table 1A, broth, 37° C., 18 h, 3 isolates), 5.2 ± 0.8; in the data set with Pseudomonas aeruginosa (Table 1A, broth), 38.0 ± 5.2; with Staphylococcus aureus (Table 1A, broth), less than 1.0; in the data set on Yeast Group (Table 1A, broth) it was less than 1.0. In [1], the “effectiveness against microorganisms which cause bovine mastitis” value was “effective”.

`[O-]n1ccccc1=S.[O-]n1ccccc1=S.[Zn+2]` [zinc pyridine-2-thione-N-oxide, bis[1-hydroxy-2(1H)pyridinethionato]zinc]: in the data set on Escherichia coli (setting [5]), the “50% by Weight Growth Inhibited (concentration inhibiting growth by 50%)” value came to 2.5 ± 0.5 ppm and the “100% by Weight Growth Inhibited (MIC)” value is reported as 13-20 ppm. The “effectiveness against E. coli” value with Escherichia coli (broth) is “especially effective”. Besides, in the data set on Klebsiella pneumoniae (setting [6]), the “50% by Weight Growth Inhibited (concentration inhibiting growth by 50%)” value came to 2.1 ± 0.3 ppm and the “100% by Weight Growth Inhibited (MIC)” value is on record as 10-20 ppm. In addition, in the data set with Klebsiella pneumoniae (broth), the “effectiveness against K. pneumoniae” value was “especially effective”. Moreover, in the data set on Pseudomonas aeruginosa (Tryptose-soy broth), the “50% by Weight Growth Inhibited (concentration inhibiting growth by 50%)” value was found to be 9.6 ± 6.4 ppm and the “100% by Weight Growth Inhibited (MIC)” value is given as 80-100 ppm. For the same compound, in the data set on Staphylococcus aureus (Tryptose-soy broth), the “50% by Weight Growth Inhibited (concentration inhibiting growth by 50%)” value is recorded as less than 1.0 ppm and the “100% by Weight Growth Inhibited (MIC)” value is 5-10 ppm. For the same compound, the “effectiveness against microorganisms which cause bovine mastitis” value in data set [1] is reported as “effective”. Further, in the data set with Yeast Group (Tryptose-soy broth), the “50% by Weight Growth Inhibited (concentration inhibiting growth by 50%)” value is given as less than 1.0 ppm and the “100% by Weight Growth Inhibited (MIC)” value is 3-6 ppm. Also, in the data set on E. coli, the “MIC at 95% Inhibition of Growth” value is 10 ppm and the “MIC at 100% Inhibition of Growth” value turned out to be 100 ppm. Moreover, in the data set with S. aureus, the “MIC at 95% Inhibition of Growth” value was 10 ppm and the “MIC at 100% Inhibition of Growth” value amounted to 100 ppm. For the same compound, in data set [2], the “CMT scores, overall” value is “increased CTM scores”; the “CMT values at 504 hours after the first dose” value was “Normal values”; the “adverse effects on cow's udder” value is on record as “some adverse effects on cow's udder”; the “change in CMT scores” value is “increase”. For the same compound, in data set [2], the “flakes and clots in milk” value was “produced flakes and clots in milk”; the milk output entry is given as “depressed milk output”; the milk production result is given as “reduced more dramatically than the 1% infusion”; the “overall effects compared with 1% infusion” value was “in general similar to 1% infusion except with increased severity”. Further, in data set [2], the systemic effects result was “no systemic effects were noted” and the “warmth of the udder” value was “felt warm”. For the same compound, in data set [3], the “change in CMT scores” value is given as “very slight rise”, the “effect on CMT scores” value is “no effect”, the “effect on other physical observations” value was “no effect” and the “firmness of the udder to palpation” value was “increased firmness of the udder to palpation”. For the same compound, the “irritation caused to the udder” value in [3] is reported as “low irritation”. In data set [4], the “disappearance from the milk” value was “relative quick disappearance from the milk”; the “residual amounts in milk expected at lower infused amounts” value was “may be expected to be lower”; the “residual content in milk, summary” value is on record as “very low levels”. Moreover, the median lethal dose (LD50) in the data set on rats is 200 mg/kg.
